Assay results: patent US20240336654A1, “ANTIMICROBIAL PEPTIDOMIMETICS” (SPEXIS AG, priority 2021, published 2024)
Where a SMILES comes first, the peptide text is derived from it. Bridges are numbered along the chain shown (N, C = ends). [ ]: non-standard residue; d: D form. The star is where a group is joined. Val(Nα-amidino) = CC(C)[C@H](NC(=N)N)C(=O)*; Hyp = O=C(O)[C@@H]1C[C@@H](O)CN1; Pen = CC(C)(S)[C@H](N)C(=O)O; dDab = NCC[C@@H](N)C(=O)O; Dab = NCC[C@H](N)C(=O)O

Assays:
Assay type in all cases: cell-based
[1] = tested on: Escherichia coli ATCC 25922; conditions: ATCC 25922
How it was run: (§1)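 MICs were determined by CLSI broth microdilution in cation-adjusted Mueller-Hinton II broth with about 5×10^5 CFU/mL inoculum. Peptides were tested in two-fold serial dilutions with 0.002% polysorbate 80 final. MIC in μg/mL is the lowest concentration with no visible growth after 18-20 h at 35 °C.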

[2] = tested on: Escherichia coli MCR-1 Af 45; conditions: MCR-1 Af 45
How it was run: as §1

[3] = tested on: Klebsiella pneumoniae SSI3010; conditions: SSI3010
How it was run: as §1

[4] = tested on: human red blood cells (hRBC); conditions: red cells of human, 1 h, 200 μg/mL
How it was run: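 Peptides at 200 μg/mL incubated 1 h at 37 °C with 20% (v/v) washed human RBC, shaking. Hemolysis from supernatant OD540, expressed as percent of 2.5% Triton X-100 lysis, with PBS as 0%.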

Row | SMILES | Escherichia coli ATCC 25922 MIC [1] | Escherichia coli MCR-1 Af45 MIC [2] | Klebsiella pneumoniae SSI3010 MIC [3] | Hemolysis at 0.2 g/L [4]
1 | CC[C@H](C)[C@H](NC(=O)[C@@H]1C[C@@H](O)CN1C(=O)[C@@H](NC(=N)N)C(C)C)C(=O)N[C@@H]1C(=O)N[C@@H](Cc2ccc(O)cc2)C(=O)N[C@@H]([C@@H](C)O)C(=O)N[C@@H](CC(N)=O)C(=O)N[C@@H](CCCNC(=N)N)C(=O)N[C@@H](CCN)C(=O)N[C@@H]([C@@H](C)O)C(=O)N[C@H](CCN)C(=O)N[C@@H](CO)C(=O)N[C@@H](CCN)C(=O)N[C@@H](CCN)C(=O)N[C@H](C(=O)N[C@@H](Cc2ccc(O)cc2)C(=O)O)CSSC1(C)C [Example 81, Gua-Val-Hyp-Ile-Pen-Tyr-Thr-Asn-Arg-Dab-Thr-^DDab-Ser-Dab-Dab-Cys-Tyr] ({Val(Nα-amidino)}-[Hyp]I[Pen]YTNR[Dab]T[dDab]S[Dab][Dab]CY-OH; disulfide 3-14) | 0.125 µg/mL | 0.125 µg/mL | 0.25 µg/mL | <1%
2 | CC[C@H](C)[C@H](NC(=O)[C@@H]1C[C@@H](O)CN1C(=O)[C@@H](NC(=N)N)C(C)C)C(=O)N[C@@H]1C(=O)N[C@@H](Cc2ccc(O)cc2)C(=O)N[C@@H]([C@@H](C)O)C(=O)N[C@@H](CC(N)=O)C(=O)N[C@@H](CCCNC(=N)N)C(=O)N[C@@H](CCN)C(=O)N[C@@H](CO)C(=O)N[C@H](CCN)C(=O)N[C@@H](CO)C(=O)N[C@@H](CCN)C(=O)N[C@@H](CCN)C(=O)N[C@H](C(=O)N[C@@H](Cc2ccc(O)cc2)C(=O)O)CSSC1(C)C [Example 82, Gua-Val-Hyp-Ile-Pen-Tyr-Thr-Asn-Arg-Dab-Ser-^DDab-Ser-Dab-Dab-Cys-Tyr] ({Val(Nα-amidino)}-[Hyp]I[Pen]YTNR[Dab]S[dDab]S[Dab][Dab]CY-OH; disulfide 3-14) | 0.125 µg/mL | 0.125 µg/mL | 0.25 µg/mL | <1%
3 | CC[C@H](C)[C@H](NC(=O)[C@@H]1C[C@@H](O)CN1C(=O)[C@@H](NC(=N)N)C(C)C)C(=O)N[C@H]1CCNC(=O)CC[C@@H](C(=O)N[C@@H](Cc2ccc(O)cc2)C(=O)O)NC(=O)[C@H](CCN)NC(=O)[C@H](CCN)NC(=O)[C@H](CCCCN)NC(=O)[C@@H](CCN)NC(=O)[C@H]([C@@H](C)O)NC(=O)[C@H](CCN)NC(=O)[C@H](CCCNC(=N)N)NC(=O)[C@H](CC(N)=O)NC(=O)[C@H](CO)NC(=O)[C@H](Cc2ccc(O)cc2)NC1=O [Example 83, Gua-Val-Hyp-Ile-Dab-Tyr-Ser-Asn-Arg-Dab-Thr-^DDab-Lys-Dab-Dab-Glu-Tyr] ({Val(Nα-amidino)}-[Hyp]I[Dab]YSNR[Dab]T[dDab]K[Dab][Dab]EY-OH; lactam 3-14) | 0.03125 µg/mL | 0.03125 µg/mL | 0.125 µg/mL | <1%
4 | CC[C@H](C)[C@H](NC(=O)[C@@H]1C[C@@H](O)CN1C(=O)[C@@H](NC(=N)N)C(C)C)C(=O)N[C@H]1CCNC(=O)CC[C@@H](C(=O)N[C@@H](Cc2ccc(O)cc2)C(=O)O)NC(=O)[C@H](CCN)NC(=O)[C@H](CCN)NC(=O)[C@H](CCCCN)NC(=O)[C@@H](CCN)NC(=O)[C@H](CO)NC(=O)[C@H](CCN)NC(=O)[C@H](CCCNC(=N)N)NC(=O)[C@H](CC(N)=O)NC(=O)[C@H](CO)NC(=O)[C@H](Cc2ccc(O)cc2)NC1=O [Example 84, Gua-Val-Hyp-Ile-Dab-Tyr-Ser-Asn-Arg-Dab-Ser-^DDab-Lys-Dab-Dab-Glu-Tyr] ({Val(Nα-amidino)}-[Hyp]I[Dab]YSNR[Dab]S[dDab]K[Dab][Dab]EY-OH; lactam 3-14) | 0.0625 µg/mL | 0.03125 µg/mL | 0.125 µg/mL | <1%
5 | CC[C@H](C)[C@H](NC(=O)[C@@H]1C[C@@H](O)CN1C(=O)[C@@H](NC(=N)N)C(C)C)C(=O)N[C@H]1CCNC(=O)CC[C@@H](C(=O)N[C@@H](Cc2ccc(O)cc2)C(=O)O)NC(=O)[C@H](CCN)NC(=O)[C@H](CCN)NC(=O)[C@H](CCCCN)NC(=O)[C@@H](CCN)NC(=O)[C@H]([C@@H](C)O)NC(=O)[C@H](CCN)NC(=O)[C@H](CCCNC(=N)N)NC(=O)[C@H](CC(N)=O)NC(=O)[C@H]([C@@H](C)O)NC(=O)[C@H](Cc2ccc(O)cc2)NC1=O [Example 85, Gua-Val-Hyp-Ile-Dab-Tyr-Thr-Asn-Arg-Dab-Thr-^DDab-Lys-Dab-Dab-Glu-Tyr] ({Val(Nα-amidino)}-[Hyp]I[Dab]YTNR[Dab]T[dDab]K[Dab][Dab]EY-OH; lactam 3-14) | 0.0625 µg/mL | 0.0625 µg/mL | 0.125 µg/mL | 1%
6 | CC[C@H](C)[C@H](NC(=O)[C@@H]1C[C@@H](O)CN1C(=O)[C@@H](NC(=N)N)C(C)C)C(=O)N[C@H]1CCNC(=O)CC[C@@H](C(=O)N[C@@H](Cc2ccc(O)cc2)C(=O)O)NC(=O)[C@H](CCN)NC(=O)[C@H](CCN)NC(=O)[C@H](CCCCN)NC(=O)[C@@H](CCN)NC(=O)[C@H](CO)NC(=O)[C@H](CCN)NC(=O)[C@H](CCCNC(=N)N)NC(=O)[C@H](CC(N)=O)NC(=O)[C@H]([C@@H](C)O)NC(=O)[C@H](Cc2ccc(O)cc2)NC1=O [Example 86, Gua-Val-Hyp-Ile-Dab-Tyr-Thr-Asn-Arg-Dab-Ser-^DDab-Lys-Dab-Dab-Glu-Tyr] ({Val(Nα-amidino)}-[Hyp]I[Dab]YTNR[Dab]S[dDab]K[Dab][Dab]EY-OH; lactam 3-14) | 0.03125 µg/mL | 0.03125 µg/mL | 0.0625 µg/mL | <1%
7 | CC[C@H](C)[C@H](NC(=O)[C@@H]1C[C@@H](O)CN1C(=O)[C@@H](NC(=N)N)C(C)C)C(=O)N[C@H]1CCC(=O)NCC[C@@H](C(=O)N[C@@H](Cc2ccc(O)cc2)C(=O)O)NC(=O)[C@H](CCN)NC(=O)[C@H](CCN)NC(=O)[C@H](CCCCN)NC(=O)[C@@H](CCN)NC(=O)[C@H]([C@@H](C)O)NC(=O)[C@H](CCN)NC(=O)[C@H](CCCNC(=N)N)NC(=O)[C@H](CC(N)=O)NC(=O)[C@H](CO)NC(=O)[C@H](Cc2ccc(O)cc2)NC1=O [Example 87, Gua-Val-Hyp-Ile-Glu-Tyr-Ser-Asn-Arg-Dab-Thr-^DDab-Lys-Dab-Dab-Dab-Tyr] ({Val(Nα-amidino)}-[Hyp]IEYSNR[Dab]T[dDab]K[Dab][Dab][Dab]Y-OH; lactam 3-14) | 0.125 µg/mL | 0.0625 µg/mL | 0.125 µg/mL | <1%
8 | CC[C@H](C)[C@H](NC(=O)[C@@H]1C[C@@H](O)CN1C(=O)[C@@H](NC(=N)N)C(C)C)C(=O)N[C@H]1CCC(=O)NCC[C@@H](C(=O)N[C@@H](Cc2ccc(O)cc2)C(=O)O)NC(=O)[C@H](CCN)NC(=O)[C@H](CCN)NC(=O)[C@H](CCCCN)NC(=O)[C@@H](CCN)NC(=O)[C@H]([C@@H](C)O)NC(=O)[C@H](CCN)NC(=O)[C@H](CCCNC(=N)N)NC(=O)[C@H](CC(N)=O)NC(=O)[C@H]([C@@H](C)O)NC(=O)[C@H](Cc2ccc(O)cc2)NC1=O [Example 88, Gua-Val-Hyp-Ile-Glu-Tyr-Thr-Asn-Arg-Dab-Thr-^DDab-Lys-Dab-Dab-Dab-Tyr] ({Val(Nα-amidino)}-[Hyp]IEYTNR[Dab]T[dDab]K[Dab][Dab][Dab]Y-OH; lactam 3-14) | 0.125 µg/mL | 0.0625 µg/mL | 0.125 µg/mL | <1%
9 | CC[C@H](C)[C@H](NC(=O)[C@@H]1C[C@@H](O)CN1C(=O)[C@@H](NC(=N)N)C(C)C)C(=O)N[C@H]1CCC(=O)NCC[C@@H](C(=O)N[C@@H](Cc2ccc(O)cc2)C(=O)O)NC(=O)[C@H](CCN)NC(=O)[C@H](CCN)NC(=O)[C@H](CCCCN)NC(=O)[C@@H](CCN)NC(=O)[C@H](CO)NC(=O)[C@H](CCN)NC(=O)[C@H](CCCNC(=N)N)NC(=O)[C@H](CC(N)=O)NC(=O)[C@H]([C@@H](C)O)NC(=O)[C@H](Cc2ccc(O)cc2)NC1=O [Example 89, Gua-Val-Hyp-Ile-Glu-Tyr-Thr-Asn-Arg-Dab-Ser-^DDab-Lys-Dab-Dab-Dab-Tyr] ({Val(Nα-amidino)}-[Hyp]IEYTNR[Dab]S[dDab]K[Dab][Dab][Dab]Y-OH; lactam 3-14) | 0.125 µg/mL | 0.125 µg/mL | 0.125 µg/mL | <1%
10 | CC[C@H](C)[C@H](NC(=O)[C@@H]1C[C@@H](O)CN1C(=O)[C@@H](NC(=N)N)C(C)C)C(=O)N[C@@H]1C(=O)N[C@@H](Cc2ccc(O)cc2)C(=O)N[C@@H](CO)C(=O)N[C@@H](CC(N)=O)C(=O)N[C@@H](CCCNC(=N)N)C(=O)N[C@@H](CCN)C(=O)N[C@@H]([C@@H](C)O)C(=O)N[C@H](CCN)C(=O)N[C@@H]([C@@H](C)O)C(=O)N[C@@H](CCN)C(=O)N[C@@H](CCN)C(=O)N[C@H](C(=O)N[C@@H](Cc2ccc(O)cc2)C(=O)O)CSSC1(C)C [Example 90, Gua-Val-Hyp-Ile-Pen-Tyr-Ser-Asn-Arg-Dab-Thr-^DDab-Thr-Dab-Dab-Cys-Tyr] ({Val(Nα-amidino)}-[Hyp]I[Pen]YSNR[Dab]T[dDab]T[Dab][Dab]CY-OH; disulfide 3-14) | 0.25 µg/mL | 0.125 µg/mL | 0.25 µg/mL | <1%
